Measured values from PMC8398766, “Do Small Molecules Activate the TrkB Receptor in the Same Manner as BDNF? Limitations of Published TrkB Low Molecular Agonists and Screening for Novel TrkB Orthosteric Agonists” (Pharmaceuticals, 2021).
In brackets after ≈: the same amount, converted by molar mass. Read-outs that look alike come from different tables or passages of the source.

Experiments:
[1] = Metabolic stability in human liver microsomes; details: for Clint HLM: 1 μM, phase I; for Metabolic stability in HLM (classification): compared with verapamil
[2] = Metabolic stability in mouse liver microsomes; details: for Clint MLM: 1 μM, phase I; for Metabolic stability in MLM (classification): compared with verapamil
[3] = PAMPA; details: for PAMPA: 10 μM, 4 h
[4] = tested on: Caco-2 monolayer; assay: Caco-2 passive permeability; details: 2 h; for Papp,AB: Caco-2, apical to basal; for Papp,BA: Caco-2, basal to apical
[5] = biological target: T1, TrkB receptor (Rattus norvegicus, UniProt Q63604); assay: ELFI TrkB phosphorylation, orthosteric agonist mode, SN56 T48 cell line; type: cell-based; details: 0.125–100 μM, 15 min
T1 construct: host or cells: SN56 T48 cell line
T1 sequence (Q63604 32-821): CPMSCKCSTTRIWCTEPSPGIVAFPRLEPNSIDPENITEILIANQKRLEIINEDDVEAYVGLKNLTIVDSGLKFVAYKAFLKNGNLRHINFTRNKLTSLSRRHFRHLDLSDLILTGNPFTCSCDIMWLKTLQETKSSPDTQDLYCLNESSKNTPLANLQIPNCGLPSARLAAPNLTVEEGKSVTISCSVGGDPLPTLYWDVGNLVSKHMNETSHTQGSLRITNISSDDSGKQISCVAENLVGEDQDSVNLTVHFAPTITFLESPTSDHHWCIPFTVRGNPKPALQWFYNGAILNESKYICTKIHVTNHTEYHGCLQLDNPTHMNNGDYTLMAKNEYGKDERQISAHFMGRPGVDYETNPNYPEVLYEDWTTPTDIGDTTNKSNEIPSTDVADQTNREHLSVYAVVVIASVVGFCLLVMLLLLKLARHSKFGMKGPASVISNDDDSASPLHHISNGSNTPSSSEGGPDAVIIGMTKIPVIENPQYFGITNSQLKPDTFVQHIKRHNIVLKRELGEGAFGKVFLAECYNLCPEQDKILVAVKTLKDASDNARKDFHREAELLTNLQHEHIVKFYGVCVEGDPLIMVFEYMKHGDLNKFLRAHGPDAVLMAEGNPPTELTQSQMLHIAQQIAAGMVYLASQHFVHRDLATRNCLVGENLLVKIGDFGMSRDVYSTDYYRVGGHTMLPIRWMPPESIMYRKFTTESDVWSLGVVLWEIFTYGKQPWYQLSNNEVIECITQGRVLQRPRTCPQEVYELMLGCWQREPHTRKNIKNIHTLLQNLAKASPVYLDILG
Method: The SN56 T48 cell line with stable overexpression of the TrkB receptor was purchased from Emory University (Atlanta, GA, USA) and cultivated according to the protocol described in Jang et al., 2010 [12]. The cell lines were cultivated with the following reagents: DMEM High Glucose, fetal bovine serum (FBS), Penicillin-Streptomycin Solution 100×, and Trypsin-EDTA 1×; all were purchased from Biowest, and G418 was from ThermoFisher Scientific. For the ELFI experiments, cells were seeded (8000/well) on a PDL-treated 96-well plate (BioCoat™, Corning Inc., Corning, NY, USA) and 6-well plate (400,000/well) for lysate collection and immunoblot analysis.
In the orthosteric agonist mode experiments, starved cells (5 h) were treated with compounds (0.125–100 μM; volume, 100 μL/well) or BDNF (0.01–10 nM; volume, 100 μL/well) dissolved in culture medium. In the allosteric modulation mode experiments, starved cells (5 h) were treated with final compound concentrations of 3, 10, and 30 μM; volume, 50 μL/well) in the presence of a rising concentration of BDNF (final concentration in well, 0.15–5 nM; volume, 50 μL/well). Corresponding treatment with DMSO (v/v) was performed for a control. Cells were treated for 15 min in both the orthosteric and allosteric modulation mode experiments.
The analysis of TrkB receptor activation was performed using the ELFI method adapted from Boltayev et al. (2017) with some modifications. After compound treatment, experiments were stopped by fixing cells with 10% buffered formalin (Kolchem, Lodz, Poland) for 20 min (volume, 100 μL/well). Afterwards, cells were permeabilized with washing buffer (TBS+ 0.1% Tween20) for 15 min, and endogenous peroxidases were quenched by 20 min of incubation with 1% H2O2 dissolved in TBS (each solution: volume, 100 μL/well). Epitopes were blocked with 10% BSA (Biowest) dissolved in washing buffer for 2 h (volume, 100 μL/well) and incubated with anti-pTrkB (Tyr707) primary antibody (Cell Signaling Technology, Danvers, MA, USA) diluted in washing buffer (1:500; overnight at 4 °C; volume, 100 μL/well). After repeated washing, cells were incubated with HRP-linked anti-rabbit antibody (Cell Signaling Technology) for 2 h (1:1000; RT; volume, 100 μL/well) and washed. The cells were then incubated with 100 μL of ImmunoCruz™ Western Blotting Luminol (Santa Cruz Biotechnology, Dallas, TX, USA) for 1 min in the dark, and the signals were measured using a microplate luminometer (VICTOR Light 1420-060, PerkinElmer®, Waltham, MA, USA). For non-specific binding, cells were treated, with the exception of primary antibody.

[6] = Chemical stability pH 7.4; type: physicochemical; details: pH = 7.4, 4 h
[7] = biological target: T2, exTrkB (Homo sapiens, UniProt Q16620); assay: MST binding affinity (Kd) determination
T2 construct: human TrkB receptor (exTrkB), residues 1−430, was cloned into the pCMV2 expression vector; made in house; host or cells: ExpiCHO-S cells
T2 sequence (Q16620 32-430): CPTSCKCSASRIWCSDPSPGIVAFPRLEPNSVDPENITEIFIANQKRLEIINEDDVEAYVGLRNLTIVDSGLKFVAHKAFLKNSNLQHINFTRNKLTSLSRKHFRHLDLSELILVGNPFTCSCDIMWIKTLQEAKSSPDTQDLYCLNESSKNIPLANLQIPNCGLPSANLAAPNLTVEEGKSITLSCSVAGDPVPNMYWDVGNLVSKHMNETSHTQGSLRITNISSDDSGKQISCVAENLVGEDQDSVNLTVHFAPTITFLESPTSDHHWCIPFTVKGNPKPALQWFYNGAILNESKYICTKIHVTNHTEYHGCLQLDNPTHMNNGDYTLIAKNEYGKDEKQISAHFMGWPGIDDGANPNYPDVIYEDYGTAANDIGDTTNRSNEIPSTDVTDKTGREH
Method: The gene encoding the extracellular domain of the human TrkB receptor (exTrkB), residues 1−430, was cloned into the pCMV2 expression vector. Protein expression was performed in suspension-cultivated mammalian ExpiCHO-S cells using the ExpiFectamine (Thermo Scientific, Thermo Fisher Scientific, Waltham, MA, USA) transfection reagent. The secreted protein was purified using a four-step protocol. Clarified culture medium was precipitated with ammonium sulfate added to a final concentration of 1.5 M and centrifuged (235,000× g, 60 min at 4 °C). The supernatant after centrifugation was applied on a HiTrap Phenyl column (GE Healthcare, Chicago, IL, USA) equilibrated with buffer A (25 mM Tris, 1 mM DTT; pH 7.5) with 1.5 M ammonium sulfate. Bound proteins were eluted with a linear gradient of buffer A. The eluted proteins were dialyzed overnight in buffer A and loaded on a CaptoQ ImpRes column (GE Healthcare) equilibrated with buffer A with 50 mM NaCl. The bound proteins were eluted with a linear gradient of buffer A with 1 M NaCl. The fractions containing exTrkB protein were pooled, and MnCl2 and CaCl2 (1mM final concentration each) were added. The sample was purified on a HiTrap Con A 4B column (GE Healthcare) equilibrated with buffer B (25 mM Tris, 0.5 M NaCl, 1 mM MnCl2, 1 mM CaCl2; pH 7.5) and eluted with buffer C (25 mM Tris, 0.1 M NaCl, 0.4 M α-D-glucopyranoside; pH 6.5). To improve the protein recovery, buffer C flow was paused nine times during elution. The eluted fractions were concentrated and purified by size-exclusion chromatography on a HiLoad 16/600 Superdex 200 column (GE Healthcare) in buffer A with 0.5 M NaCl. The protein samples were concentrated to 1 mg/mL, and buffer was exchanged (PBS; pH 7.4). Samples were frozen in liquid nitrogen and stored at −80 °C. The protein purity was estimated by SDS–PAGE followed by Coomassie Brilliant Blue staining. The protein concentration was determined from the absorption at 280 nm using an UV NanoDrop 1000 spectrophotometer (Thermo Scientific).
The exTrkB was labeled with a Monolith Protein Labeling Kit RED-NHS 2nd Generation (NanoTemper Technologies GmbH, Munich, Germany) according to the manufacturer’s protocol. The labelling efficiency was always determined spectrophotometrically with NanoPhotometer® NP80 (Impel) in line with the manufacturer’s recommendations. Labelled exTrkB protein was aliquoted and stored at −80 °C to avoid repeated freeze–thaw cycles. Before analysis, the exTrkB protein was thawed on ice and diluted with MST buffer (50 mM Tris pH = 8; 150 mM NaCl; 10 mM MgCl2; 0.1% Tween20) to the desired concentration.
For primary screening (single-point MST experiments for signal amplitude determination), each of the 987 screened compounds were diluted in MST buffer + 0.1% Tween20 to a final concentration of 0.5 mM. The tested compounds were mixed with exTrkB solution (the final concentration of exTrkB was 20 nM) and centrifuged (10,000× g, 4 min at 4 °C) to eliminate protein and compound aggregates. Before loading to capillaries (Monolith NT.115 Capillaries, NanoTemper Technologies GmbH), the samples were incubated for 5 min at 25 °C and then placed into the MST apparatus (Monolith, NanoTemper Technologies GmbH). The experiments were performed using nano-blue excitation, LED light adjusted to 20% excitation power, and MST power set to medium, and the fluorescence signal during thermophoresis was detected after 30 s. Single-point MST experiments were performed by the determination of the amplitude signal between the unbound and bound state between the molecule and exTrkB, which was analyzed using the MO.Control Software version 1.6 (NanoTemper Technologies GmbH). A reference sample containing only exTrkB and the equivalent DMSO concentration (v/v) was included in each individual MST experiment. At least three technical replicates were prepared for each of the tested compounds. A binding affinity study was performed for 113 of the selected compounds at 16 concentration points. […]

[8] = Kinetic solubility (shake-flask); details: pH 7.4, 4 h, 25 °C
[9] = biological target: extracellular domain of the human TrkB receptor (exTrkB), residues 1-430 (human) (UniProt Q16620); assay: MST; exTrkB labelled with RED-NHS, 20 nM; ligand titrated at 16 concentration points; MST buffer (50 mM Tris pH 8, 150 mM NaCl, 10 mM MgCl2, 0.1% Tween20); 5 min at 25 °C before loading; Kd binding model
Sequence of extracellular domain of the human TrkB receptor (exTrkB), residues 1-430 (human) (Q16620 32-430): as above

[10] = biological target: extracellular domain of the human TrkB receptor (exTrkB), residues 1-430 (human) (UniProt Q16620)
[11] = physchem; details: 25 °C, pH 7.4, aqueous buffer, kinetic from dmso stock
[12] = Caco-2 passive permeability; details: human, Caco-2, with 5 μM elacridar and 20 μM cyclosporine A
[13] = pH 7.4

Clint HLM [1] [μL·min^−1·mgprotein^−1] | Metabolic stability in HLM (classification) [1] | Clint MLM [2] [μL·min^−1·mgprotein^−1] | Metabolic stability in MLM (classification) [2] | PAMPA [3] | Papp,AB [4] | Papp,BA [4] | Orthosteric activity (induction of TrkB phosphorylation) [5] | Chemical Stability [% of Degradation] [6] | Binding to the exTrkB receptor [7] | Kinetic Solubility [8] [µM] | Kd [9] [µM] | EC50 of TrkB phosphorylation (Y706) by enzyme-linked fixed-cell immunoassay (ELFI) in SN56 T48 cells overexpressing TrkB; BDNF 0.01-10 nM, 15 min [10] [µM] | solubility kinetic at 4 h [11] [µM] | microsomal CLint at 1 μM ([1]; human, liver microsomes) [µL/min/mg] | microsomal CLint at 1 μM ([2]; mouse, liver microsomes) [µL/min/mg] | Papp at 4 h, 10 μM ([3]; PAMPA, pH 7.4) [nm/s] | Papp A→B at 2 h [12] [nm/s] | Papp B→A at 2 h [12] [nm/s] | Kinetic Solubility [13] [µM] | Compound
0.3 | very good metabolic stability | 1.5 | very good metabolic stability | <0.01 10^−6·cm/s | 8.86 10^−6·cm/s | 8.00 10^−6·cm/s | did not observe any orthosteric activity | Stable | not observed | 404 |  |  |  |  |  |  |  |  |  | CC(=O)NCCc1c[nH]c2ccc(O)cc12 [NAS, N-acetylserotonin]
 |  |  |  |  |  |  |  |  |  |  | 0.093 | 0.004 |  |  |  |  |  |  |  | Brain-derived neurotrophic factor (ligand)
 | moderate degradation rate |  | moderate degradation rate |  |  |  | did not observe any orthosteric activity | Stable | not observed |  |  |  | 168 (≈ 45.4 µg/mL) | 49.4 | 26.6 | 11 | 30 | 111 |  | O=c1cc(-c2cccc(O)c2)oc2c(O)c(O)ccc12 [7,8,3′-THF, 7,8,3′-trihydroxyflavone]
3.7 | very good metabolic stability |  | very good metabolic stability | 0.01 10^−6·cm/s |  | 0.12 10^−6·cm/s | did not observe any orthosteric activity | Stable | not observed | 397 |  |  |  |  |  |  |  |  |  | O=C(NCCO)c1cc(C(=O)NCCO)cc(C(=O)NCCO)c1 [LM22-A4]
 | very good metabolic stability | 2.1 | very good metabolic stability | 1.24 10^−6·cm/s | 1.11 10^−6·cm/s | 2.29 10^−6·cm/s | did not observe any orthosteric activity | Stable | not observed |  |  |  |  |  |  |  |  |  | 437 | O=C1NCCCC1C(=O)NCCc1c[nH]c2ccc(O)cc12 (stereo not shown) [HIOC]
